The values that follow come from US5538993A, “Certain tetrahydrocannabinol-7-oic acid derivatives” (priority 1991, dated 1996).

Data set [1] has as its system cataleptic response. The data set can be described thus: Cataleptic effects, ring test. It is filed as in vivo, mouse. The note with it: 40 mg/kg, 5 min test period, ± SD. How it is done:
The lack of CNS activity for the compounds described herein may be seen from the data shown in Table V. This was measured by the so-called "ring test" [Pertwee, R. G., et al., J. Pharmacol., 46, 753 (1972)] in which the cataleptic effects of cannabinoids can be quantitated. The compounds produced little or no response when compared with the parent drug.
The cataleptic response was measured using the ring test. Mice were placed on a horizontal wire ring 5.5 cm in diameter, which was attached to a 16 cm vertical rod. The hind paws and fore paws were placed at opposite sides of the ring. It is important that the ambient temperature is maintained at 30° C. and that the environment be free of auditory stimuli and bright lights. The criteria for immobility are detailed by Pertwee. The response is calculated as the fraction of time the mouse is immobile over a 5 min. test period. Measurements were always done between 2 and 4 p.m. and the animals were used only once.

For data set [2] the following is noted: previously shown; cited from earlier work.
The test system of data set [3] is peritoneal leukocytes. The data set is described as follows: Leukocyte adhesion assay (peritoneal cells after oral dosing). It counts as in vivo, female CD-1 mice. The note with it: cells collected 90 min after dosing; for number of adhering cells: ± S.D. As to the method: Leukocytes are thought to be major contributors to the inflammatory response and their ability in this regard is reflected by their adhesiveness to a variety of substrates [Audette, C. A., et al., ibid.] Sci., 47, 753 (1990)].
The details of the leukocytes adhesion assay have been previously reported [Audette et al., ibid.]. In brief, peritoneal cells from female CD-1 mice (20-25 g) were collected at 90 min following oral administration of the drug or vehicle (50 μl peanut oil). Cells from each treatment group (N=3) were pooled and equal numbers aliquoted into six culture dish wells (1.9 cm^2 area). After incubation for 18-20 hours, non-adhering cells were removed and the remaining cell monolayer quantitated by DNA measurement.

Data set [4] concerns PAF-Induced Paw Edema. The data set is described as follows: Inhibition of PAF-induced paw edema. It counts as in vivo, CD-1 female mice. As to conditions: vs vehicle treated controls, 15 min after PAF. As to the method: A second model, in which edema is induced by platelet activating factor (PAF), was used to evaluate activity.
The conditions were based on those reported previously [Calhoun et al., ibid.]. […] PAF (1.0 μq) or arachidonic acid (1.0 mg) dissolved in 50 μl of 5% ethanol in saline, were injected s.c. into the plantar surface of the right hind paw of CD-1 female mice (20-25 g) obtained from Charles River Labs. The mice were under ether anesthesia during this procedure. The volume of the right foot was measured to the level of the lateral malleotis by water displacement before treatment and 15 min after PAF injection or 30 min after archidonate injection. The change in paw volume was calculated for each mouse and the significance for each group was determined by a paired t test analysis.

For `CCCCCc1cc(O)c2c(c1)OC(C)(C)[C@@H]1CCC(C)=C[C@@H]21` [Δ^1 -THC, (3R,4R)-delta-1-tetrahydrocannabinol, reference compound], the “cataleptic response (fraction of time immobile)” value in data set [1] was found to be 48.9 ± 16.
Regarding `CCCCCc1cc(O)c2c(c1)OC(C)(C)[C@@H]1CCC(C(=O)O)=C[C@@H]21` [Compound 2, (3R,4R)-delta-1-tetrahydrocannabinol-7-oic acid], in data set [2], the analgetic activity result is “analgetic”, the antiinflammatory activity entry is recorded as “antiinflammatory” and the psychotropic effects entry is reported as “no psychotropic effects”.
In the case of THC-7-oic Acid [reference compound], in data set [3] (20 mg/kg oral), the “adhering cells, percent of control” value is on record as 90.6% of control and the “number of adhering cells” value is 0.67 ± 0.02 number of adhering cells × 10^-6. In addition, in data set [3] (40 mg/kg oral), the “adhering cells, percent of control” value is 67.9% of control and the “number of adhering cells” value is reported as 0.55 ± 0.22 number of adhering cells × 10^-6.
Regarding `CCCCCc1cc(O)c2c(c1)OC(C)(C)[C@@H]1CC=C(C(=O)O)C[C@@H]21` [Δ^6 -THC-7-oic acid, reference compound], the “Inhibition of PAF-Induced Paw Edema” value in data set [4] (0.5 mg/kg) was “N.S”; in data set [4] (1.0 mg/kg) it was “N.S”; in data set [4] (40.0 mg/kg) it was 50.2%.
